Measured values published in patent publication US9394299B2, “Rilyazine derivatives and compositions for the treatment of cancer” (Warner Babcock Institute for Green Chemistry, LLC, priority 2013, dated 2016).

Test system: MCF-shWISP cells
Assay: MTT cell proliferation assay, MCF-shWISP
Format: cell-based
Conditions: 72 h-exposure, 30-0.041 μM
Protocol: In vitro characterizing of the effects of rilyazine analogs on cell proliferation and apoptosis in the paired epithelial/mesenchymal lines (Colo205/Colo-R, DLD/DLD-SNAIL and MCF7/MCF7-WISP) was performed in an independent laboratory.
The Dose Preparation is based on a reconstitute in DMSO. The Concentration of the stock solution is 100 mM. Storage of the stock solution is under −80° C.
Working drug solution of rilyazine analogs: A stock solution of 100 mM OTX015 in DMSO was prepared and stored at −80° C. For growth inhibition studies, dilution series were prepared by (1) diluting stock solution into DMSO, then (2) diluting 1:300 in culture medium supplemented with 10% FBS giving a final concentration in 0.3% DMSO in the 96-well plates.
Cell lines. Cells lines were maintained in RPMI 1640 (PAA Laboratories, France) supplemented with 10% fetal bovine serum (FBS; PAA Laboratories, France), 2 mM glutamine (PAA Laboratories, France), 100 units/ml penicillin and 100 μg/ml streptomycin (PAA Laboratories, France). Cells were free of Mycoplasma.
Proliferation assays. Cell proliferation was determined using the MTT assay (3-[4,5-dimethylthiazol-2-yl]-2,5-diphenyltetrazolium bromide; Sigma-Aldrich, St. Louis, Mo.). […] After incubation, the supernatant was discarded, the cell pellet was resuspended in 0.1 mL DMSO, and the absorbance was measured at 560 nm using a microplate reader (Thermo, France). […]

Question: How did the “anti-proliferative effects (in words)” value turn out when `S=c1c2ncccc2c(-c2ccccn2)nn1C1CCCCC1` [RL-4, 7-cyclohexyl-5-(pyridin-2-yl)pyrido[2,3-d]pyridazine-8(7H)-thione] was run?
Answer: Its value is “dose-dependent anti-proliferative effects”.
